Experiments:
Assay in all cases: Bliss excess, mean over the matrix (fraction); higher = more synergy
[1] = test system: NCI-H2228 (Lung Adenocarcinoma)
Summary of the method: (§1)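 Cell lines grown in DMEM/F12 or RPMI with 10% FBS were plated in 1536-well plates and held 24 hours at 37°C, 5% CO2 before 72 hours of exposure to two-drug dose matrices, with DMSO typically at 0.2%. CellTiter-Glo 2.0 luminescence gave viability, which was converted to inhibition. Vehicle wells were set to 0 and blank wells to 1. Combination Emax is the second-highest inhibition in the matrix, and Bliss excess is the observed combination effect minus the expected EA + EB − EA·EB, where EA and EB are the single-agent effects.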

EW-16 (Ewing's Sarcoma) = test system: EW-16 (Ewing's Sarcoma)
Summary of the method: as §1

RH-41 (Rhabdomyosarcoma) = test system: RH-41 (Rhabdomyosarcoma)
Summary of the method: as §1

[2] = test system: A2780 (Ovarian Carcinoma)
Summary of the method: as §1

[3] = test system: KYSE-220 (Esophageal Squamous Cell Carcinoma)
Summary of the method: as §1

A101D (Melanoma) = test system: A101D (Melanoma)
Summary of the method: as §1

[4] = test system: NCI-H1651 (Lung Adenocarcinoma)
Summary of the method: as §1

[5] = test system: A253 (Head and Neck Carcinoma)
Summary of the method: as §1

[6] = test system: LU-165 (Small Cell Lung Carcinoma)
Summary of the method: as §1

[7] = test system: huH-1 (Hepatocellular Carcinoma)
Summary of the method: as §1

[8] = test system: DU-4475 (Breast Carcinoma)
Summary of the method: as §1

[9] = test system: CGTH-W-1 (Thyroid Gland Carcinoma)
Summary of the method: as §1

[10] = test system: NCI-H2087 (Lung Adenocarcinoma)
Summary of the method: as §1

5637 (Bladder Carcinoma) = test system: 5637 (Bladder Carcinoma)
Summary of the method: as §1

[11] = test system: JHH-2 (Hepatocellular Carcinoma)
Summary of the method: as §1

[12] = test system: UACC-812 (Breast Carcinoma)
Summary of the method: as §1

[13] = test system: SW620 (Colorectal Carcinoma)
Summary of the method: as §1

[14] = test system: G-402 (Other Solid Carcinomas)
Summary of the method: as §1

[15] = test system: EPLC-272H (Other Solid Carcinomas)
Summary of the method: as §1

[16] = test system: GA-10 (Burkitt's Lymphoma)
Summary of the method: as §1

Structure (SMILES)	Bliss excess [1]	Bliss excess (EW-16 (Ewing's Sarcoma))	Bliss excess (RH-41 (Rhabdomyosarcoma))	Bliss excess [2]	Bliss excess [3]	Bliss excess (A101D (Melanoma))	Bliss excess [4]	Bliss excess [5]	Bliss excess [6]	Bliss excess [7]	Bliss excess [8]	Bliss excess [9]	Bliss excess [10]	Bliss excess (5637 (Bladder Carcinoma))	Bliss excess [11]	Bliss excess [12]	Bliss excess [13]	Bliss excess [14]	Bliss excess [15]	Bliss excess [16]
CN(C)CCCOc1ccc(-c2ccc3ncc4c(c3c2)n(C2CCOCC2)c(=O)n4C)cn1 [AZD0156] + C=CCn1c(=O)c2cnc(Nc3ccc(N4CCN(C)CC4)cc3)nc2n1-c1cccc(C(C)(C)O)n1 [AZD1775] (first compound max 1 µM, partner max 1 µM)	-0.0934	-0.0464	-0.0175	-0.0284	-0.0432	-0.0616	-0.0046	-0.0389	-0.118	0.0041	-0.0036	-0.033	-0.071	-0.0851	-0.0233	-0.0561	-0.0262	-0.0501	-0.0105	0.026
CN(C)CCCOc1ccc(-c2ccc3ncc4c(c3c2)n(C2CCOCC2)c(=O)n4C)cn1 [AZD0156] + CCN(CCO)CCCOc1ccc2c(Nc3cc(CC(=O)Nc4cccc(F)c4)[nH]n3)ncnc2c1 [AZD2811] (first compound max 1 µM, 7x7, partner max 1 µM)	-0.0223	0.0083	0.0369	0.0336	-0.0095	-0.0198	-0.0167	-0.0119	-0.04	0.0049	-0.0135	-0.0076	-0.0251	0.0043	-0.031	-0.0171	-0.0064	-0.0111	0.0394	0.0158
CN(C)CCCOc1ccc(-c2ccc3ncc4c(c3c2)n(C2CCOCC2)c(=O)n4C)cn1 [AZD0156] + C[C@@H]1COCCN1C2=NC(=NC(=C2)C3(CC3)[S@](=N)(=O)C)C4=C5C=CNC5=NC=C4 [AZD6738] (first compound max 1 µM, 7x7, partner max 10 µM)	-0.024	-0.0074	0.0593	-0.0114	0.0134	0.0058	-0.0468	0.0145	-0.0515	0.0019	-0.0587	-0.0189	-0.0008	-0.0155	-0.0249	-0.0108	0.0308	-0.0306	0.0156	0.0921
Cc1c2c(nn1C)CSCc1cc(n(C)n1)CSc1cc(c3ccccc3c1)OCCCc1c(C(=O)O)n(C)c3c-2c(Cl)ccc13 [AZD5991] + C[C@@H](Nc1cc(F)cc(F)c1)c1cc(C(=O)N(C)C)cc2c(=O)cc(N3CCOCC3)oc12 [AZD8186] (first compound max 1 µM, 7x7, partner max 3 µM)	-0.0361	-0.0571	-0.0114	-0.0049	-0.006	-0.0318	-0.0293	-0.0396	-0.0238	-0.0024	-0.0249	-0.0348	-0.0168	-0.036	-0.0261	0.0043	-0.0298		0.0238	0.0321
NC1(C(=O)N[C@@H](CCO)c2ccc(Cl)cc2)CCN(c2ncnc3[nH]ccc23)CC1 [Capivasertib] + CC(=O)c1c(C)c2cnc(Nc3ccc(N4CCNCC4)cn3)nc2n(C2CCCC2)c1=O [Palbociclib] (first compound max 10 µM, 7x7, partner max 10 µM)	-0.0216	0.0029	-0.047	-0.0266	0.0407	0.0157	-0.0393	-0.0709	-0.0886	-0.0462	-0.0335	0.0111	-0.03	-0.0521	-0.0028		-0.019	-0.0357	-0.0065	-0.0029
NC1(C(=O)N[C@@H](CCO)c2ccc(Cl)cc2)CCN(c2ncnc3[nH]ccc23)CC1 [Capivasertib] + CC(C)n1c(=O)n(C)c2cnc3cc(F)c(-c4ccc(OCCCN5CCCCC5)nc4)cc3c21 [AZD1390] (first compound max 10 µM, 7x7, partner max 0.3 µM)	-0.0728	-0.079	-0.0364	-0.0885	-0.0659	-0.118	-0.0404	-0.0597	-0.0456	-0.0802	0.0233	-0.0273	-0.0378	-0.052	-0.0449		-0.0529	-0.0731	-0.13	-0.028
NC1(C(=O)N[C@@H](CCO)c2ccc(Cl)cc2)CCN(c2ncnc3[nH]ccc23)CC1 [Capivasertib] + CCN(CCO)CCCOc1ccc2c(Nc3cc(CC(=O)Nc4cccc(F)c4)[nH]n3)ncnc2c1 [AZD2811] (first compound max 10 µM, 7x7, partner max 1 µM)	-0.041	-0.014	0.0097	0.05	-0.0154	-0.0282	-0.0381	-0.0346	-0.0323	-0.0695	0.0487	0.0234	-0.0243	-0.101	-0.0437		-0.029	-0.0502	0.0027	-0.111
NC1(C(=O)N[C@@H](CCO)c2ccc(Cl)cc2)CCN(c2ncnc3[nH]ccc23)CC1 [Capivasertib] + COc1nnc2ccc(N3CCC(c4ccc(OCCN5CCN(C)C(=O)[C@H]5C)cc4)CC3)nn12 [AZD5153] (first compound max 10 µM, 7x7, partner max 1 µM)	0.036	0.0283	0.0198	-0.0148	-0.0248	0.0062	-0.0361	0.125	-0.0351	0.0064	0.02	0.0068	0.0179	0.0035	0.0064		0.0026	-0.02	-0.0025	-0.0148
NC1(C(=O)N[C@@H](CCO)c2ccc(Cl)cc2)CCN(c2ncnc3[nH]ccc23)CC1 [Capivasertib] + C[C@@H]1COCCN1C2=NC(=NC(=C2)C3(CC3)[S@](=N)(=O)C)C4=C5C=CNC5=NC=C4 [AZD6738] (first compound max 10 µM, 7x7, partner max 10 µM)	-0.0617	0.0116	-0.0389	-0.0336	-0.0523	-0.107	-0.0528	-0.0163	-0.01	-0.0533	0.0226	-0.0508	-0.0071	-0.0846	-0.0651		-0.0475	-0.017	-0.0353	-0.0303
NC1(C(=O)N[C@@H](CCO)c2ccc(Cl)cc2)CCN(c2ncnc3[nH]ccc23)CC1 [Capivasertib] + Cn1cnc2c(F)c(Nc3ccc(Br)cc3Cl)c(C(=O)NOCCO)cc21 [Selumetinib] (first compound max 10 µM, 7x7, partner max 10 µM)	0.017	0.0097	0.0251	0.0151	0.0644	0.0628	-0.0156	0.0591	-0.0404	-0.0199	0.0066	0.0262	0.016	-0.0187	0.016		0.0186	0.0126	0.128	-0.0442
CS(=O)(=O)CCNCc1ccc(-c2ccc3ncnc(Nc4ccc(OCc5cccc(F)c5)c(Cl)c4)c3c2)o1 [Lapatinib] + C[C@@H](Oc1cc(-c2cnn(C3CCNCC3)c2)cnc1N)c1c(Cl)ccc(F)c1Cl [Crizotinib] (first compound max 10 µM, 7x7, partner max 10 µM)	0.0163	-0.0562	-0.0054	-0.0277	-0.0397	-0.0587	-0.0331	-0.0221	-0.0858	-0.0577	-0.0077	-0.0294	-0.0499	-0.0285	-0.0831		-0.0736	-0.0517	0.0191	-0.0218
CC(=O)c1c(C)c2cnc(Nc3ccc(N4CCNCC4)cn3)nc2n(C2CCCC2)c1=O [Palbociclib] + CC1(C)CCC(CN2CCN(c3ccc(C(=O)NS(=O)(=O)c4ccc(NCC5CCOCC5)c([N+](=O)[O-])c4)c(Oc4cnc5[nH]ccc5c4)c3)CC2)=C(c2ccc(Cl)cc2)C1 [Venetoclax] (first compound max 10 µM, 7x7, partner max 1 µM)	0.005	0.0564	-0.0019	0.0005	-0.081	-0.0025	-0.038	-0.0555	-0.0502	-0.0529	-0.0162	-0.0219	-0.0596	-0.0149	0.0031		-0.0248	0.0369	-0.0106	-0.0895
CC(=O)c1c(C)c2cnc(Nc3ccc(N4CCNCC4)cn3)nc2n(C2CCCC2)c1=O [Palbociclib] + Cc1c2c(nn1C)CSCc1cc(n(C)n1)CSc1cc(c3ccccc3c1)OCCCc1c(C(=O)O)n(C)c3c-2c(Cl)ccc13 [AZD5991] (first compound max 10 µM, 7x7, partner max 1 µM)	-0.0537	-0.0356	-0.0028	-0.0344	-0.0645	-0.0091	-0.0239	-0.134	-0.0347	-0.0422	0.0238	-0.0037	-0.0561	-0.0342	-0.0475		-0.0292	0.0106	-0.0979	-0.0211
CC(=O)c1c(C)c2cnc(Nc3ccc(N4CCNCC4)cn3)nc2n(C2CCCC2)c1=O [Palbociclib] + Cn1cnc2c(F)c(Nc3ccc(Br)cc3Cl)c(C(=O)NOCCO)cc21 [Selumetinib] (first compound max 10 µM, 7x7, partner max 10 µM)	-0.0822	-0.0095	-0.0076	0.0327	0.0235	-0.0907	-0.0391	-0.0864	-0.0518	-0.0455	-0.0446	-0.036	-0.0101	-0.0288	0.0347		0.0191	0.0399	0.024	-0.0193
CCc1c2c(nc3ccc(O)cc13)-c1cc3c(c(=O)n1C2)COC(=O)[C@]3(O)CC [SN-38] + O=C(c1cc(Cc2n[nH]c(=O)c3ccccc23)ccc1F)N1CCN(C(=O)C2CC2)CC1 [Olaparib] (first compound max 0.3 µM, 7x7, partner max 10 µM)		0.076		0.0545	0.0078	0.114	0.0252	0.0223	0.0203	0.0467	-0.0271	0.0526	0.017		-0.0442	0.0333	0.0524	0.0614	0.071	

From the supplement of paper PMC11061612
